Test results: patent US20240368120A1 (Terns Pharmaceuticals, Inc., priority 2023, published 2024)

Target: T1, human GLP-1R receptor (Homo sapiens, UniProt P43220)
T1 construct: expressed in transfected cells
Assay: GLP-1R low expression cell assay (cAMP TR-FRET, CHO-K1_hGLP-1Rlow_clone10 cells)
Assay type: cell-based
Details: for EC50: cAMP TR-FRET, 30 min at 25° C.; for Emax / GLP-1R Low Expression Cell Assay Emax (%): maximum activation relative to control GLP-1 peptide agonist
Method in brief: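 CHO-K1 cells stably expressing low surface human GLP-1R (clone10), 1,000 cells/well, exposed to 10-point 3-fold compound dilutions for 30 min at 25 °C. cAMP measured by TR-FRET (Eu-cAMP tracer/ULight-anti-cAMP, 15 min). EC50 from Hill fit of duplicate percent activation relative to a parallel GLP-1 control agonist.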

T1 sequence (P43220 24-463): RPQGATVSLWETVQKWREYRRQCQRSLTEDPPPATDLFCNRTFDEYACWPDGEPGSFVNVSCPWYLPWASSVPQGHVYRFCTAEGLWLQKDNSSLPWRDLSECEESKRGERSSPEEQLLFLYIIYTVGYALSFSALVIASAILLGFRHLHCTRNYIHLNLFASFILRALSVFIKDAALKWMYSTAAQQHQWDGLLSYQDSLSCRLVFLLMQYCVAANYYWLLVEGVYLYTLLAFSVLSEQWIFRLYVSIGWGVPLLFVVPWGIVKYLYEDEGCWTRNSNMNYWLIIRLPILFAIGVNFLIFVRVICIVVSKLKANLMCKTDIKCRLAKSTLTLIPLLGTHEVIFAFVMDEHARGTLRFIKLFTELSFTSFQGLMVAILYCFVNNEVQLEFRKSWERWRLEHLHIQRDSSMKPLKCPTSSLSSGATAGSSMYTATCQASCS

Row | Compound | EC50 [nM] | Emax [%] | GLP-1R Low Expression Cell Assay Emax (%)
1 | COc1ccc(C2CCN(Cc3nc4c(OC(F)F)cc(C(=O)O)cc4n3C)CC2)cc1OCc1ccc(Cl)cc1F [Compound 230, 2-((4-(3-((4-Chloro-2-fluorobenzyl)oxy)-4-methoxyphenyl)piperidin-1-yl)methyl)-4-(difluoromethoxy)-1-methyl-1H-benzo[d]imidazole-6-carboxylic acid] | > 1000 | < 25 | –
2 | Cn1c(CN2CCC(c3cccc(OCc4ccc(C#N)cc4F)c3Cl)CC2)nc2c(OC(F)F)cc(C(=O)O)cc21 [Compound 179, 2-((4-(2-Chloro-3-((4-cyano-2-fluorobenzyl)oxy)phenyl)piperidin-1-yl)methyl)-4-(difluoromethoxy)-1-methyl-1H-benzo[d]imidazole-6-carboxylic acid] | > 1000 | 25 to 50 | –
3 | Cc1ccc(COc2cccc(C3CCN(Cc4nc5c(OC(F)F)cc(C(=O)O)cc5n4C)CC3)n2)c(F)c1 [Compound 238, 4-(Difluoromethoxy)-2-((4-(6-((2-fluoro-4-methylbenzyl)oxy)pyridin-2-yl)piperidin-1-yl)methyl)-1-methyl-1H-benzo[d]imidazole-6-carboxylic acid] | 10 to 100 | > 85 | –
4 | COc1c(OCc2ccc(Cl)cc2F)cccc1C1CCN(Cc2nc3c(OC(F)F)cc(C(=O)O)cc3n2C)CC1 [Compound 171, 2-((4-(3-((4-Chloro-2-fluorobenzyl)oxy)-2-methoxyphenyl)piperidin-1-yl)methyl)-4-(difluoromethoxy)-1-methyl-1H-benzo[d]imidazole-6-carboxylic acid] | > 1000 | < 25 | –
5 | O=C(O)c1ccc2nc(CN3CCC(c4cccc(OCc5ccc(Cl)cc5F)n4)CC3)c3c(c2c1)COCC3 [Compound 244, 5-((4-(6-((4-chloro-2-fluorobenzyl)oxy)pyridin-2-yl)piperidin-1-yl)methyl)-3,4-dihydro-1H-pyrano[4,3-c]quinoline-9-carboxylic acid] | > 1000 | < 25 | –
6 | CC(CF)Oc1cc(C(=O)O)cc2c1nc(CN1CCC(c3cccc(OCc4ccc(Cl)cc4F)n3)CC1)n2C (single isomer, unassigned) [Compound 263] | < 10 | – | ++++ (Emax is >85%)
7 | Cn1c(CN2CCC(c3cccc(OCc4ccc(C#N)cc4F)n3)CC2)nc2c(OCC(F)(F)F)cc(C(=O)O)cc21 [Compound 121, 2-((4-(6-((4-Cyano-2-fluorobenzyl)oxy)pyridin-2-yl)piperidin-1-yl)methyl)-1-methyl-4-(2,2,2-trifluoroethoxy)-1H-benzo[d]imidazole-6-carboxylic acid] | < 10 | > 85 | –
8 | Cn1c(CN2CCC(c3cc(OCc4ccc(C#N)cc4F)ccc3F)CC2)nc2c(OC(F)F)cc(C(=O)O)cc21 [Compound 181, 2-((4-(5-((4-Cyano-2-fluorobenzyl)oxy)-2-fluorophenyl)piperidin-1-yl)methyl)-4-(difluoromethoxy)-1-methyl-1H-benzo[d]imidazole-6-carboxylic acid] | > 1000 | 50 to 85 | –
9 | Cn1c(CN2CCC(c3cccc(OCc4ccc(Cl)cc4F)n3)CC2)nc2c(OC(F)CF)cc(C(=O)O)cc21 (single isomer, unassigned) [Compound 330] | 10 to 100 | – | ++++ (Emax is >85%)
10 | Cn1c(CN2CCC(c3cccc(OCc4ccc(C(F)(F)F)cc4F)n3)CC2)nc2c(OC(F)F)cc(C(=O)O)cc21 [Compound 223] | 10 to 100 | > 85 | –
11 | Cn1c(CN2CCC(c3cccc(OCc4ccc(Cl)cc4F)n3)CC2)nc2c(OCC(F)(F)F)cc(C(=O)O)cc21 [Compound 224, 2-((4-(6-((4-Chloro-2-fluorobenzyl)oxy)pyridin-2-yl)piperidin-1-yl)methyl)-1-methyl-4-(2,2,2-trifluoroethoxy)-1H-benzo[d]imidazole-6-carboxylic acid] | 10 to 100 | > 85 | –
12 | Cn1c(CN2CCC(c3cccc4c3O[C@@](C)(c3ccc(Cl)cn3)O4)CC2)nc2c(C(C)(F)F)cc(C(=O)O)cc21 [Compound 87, (S)-2-((4-(2-(5-Chloropyridin-2-yl)-2-methylbenzo[d][1,3]dioxol-4-yl)piperidin-1-yl)methyl)-4-(1,1-difluoroethyl)-1-methyl-1H-benzo[d]imidazole-6-carboxylic acid] | 100 to 1000 | > 85 | –
13 | Cn1c(CN2CCC(c3ccc4c(c3)N(Cc3ccc(Cl)cc3F)CCO4)CC2)nc2c(OC(F)F)cc(C(=O)O)cc21 [Compound 373, 2-((4-(4-(4-Chloro-2-fluorobenzyl)-3,4-dihydro-2H-benzo[b][1,4]oxazin-6-yl)piperidin-1-yl)methyl)-4-(difluoromethoxy)-1-methyl-1H-benzo[d]imidazole-6-carboxylic acid] | > 1000 | < 25 | –
14 | CCOc1cc(C(=O)NS(C)(=O)=O)cc2c1nc(CN1CCC(c3cccc(OCc4ccc(C#N)cc4F)n3)CC1)n2C [Compound 261, 2-((4-(6-((4-Cyano-2-fluorobenzyl)oxy)pyridin-2-yl)piperidin-1-yl)methyl)-4-ethoxy-1-methyl-N-(methylsulfonyl)-1H-benzo[d]imidazole-6-carboxamide] | 10 to 100 | > 85 | –
15 | Cn1c(CN2CCC(c3cccc(OCc4ccc(Cl)cc4F)n3)CC2)nc2c(OCC3(C#N)CC3)cc(C(=O)O)cc21 [Compound 214, 2-((4-(6-((4-Chloro-2-fluorobenzyl)oxy)pyridin-2-yl)piperidin-1-yl)methyl)-4-((1-cyanocyclopropyl)methoxy)-1-methyl-1H-benzo[d]imidazole-6-carboxylic acid] | 100 to 1000 | 50 to 85 | –
16 | Cn1c(CN2CCC(c3cccc(OCc4ccc(C5CC5)cc4F)n3)CC2)nc2c(OC(F)F)cc(C(=O)O)cc21 [Compound 365, 2-((4-(6-((4-Cyclopropyl-2-fluorobenzyl)oxy)pyridin-2-yl)piperidin-1-yl)methyl)-4-(difluoromethoxy)-1-methyl-1H-benzo[d]imidazole-6-carboxylic acid] | 10 to 100 | > 85 | –
17 | N#Cc1ccc(COc2cccc(C3CCN(Cc4nc5ccc(C(=O)O)c(O)c5n4C[C@@H]4CCO4)CC3)n2)c(F)c1 [Compound 377, (S)-2-((4-(6-((4-Cyano-2-fluorobenzyl)oxy)pyridin-2-yl)piperidin-1-yl)methyl)-7-hydroxy-1-(oxetan-2-ylmethyl)-1H-benzo[d]imidazole-6-carboxylic acid] | < 10 | – | ++++ (Emax is >85%)
18 | Cn1c(CN2CCC(c3cccc(OCc4ccc(Cl)cc4F)n3)CC2)nc2c(OC[C@@H]3CCO3)cc(C(=O)O)cc21 [Compound 211, (S)-2-((4-(6-((4-Chloro-2-fluorobenzyl)oxy)pyridin-2-yl)piperidin-1-yl)methyl)-1-methyl-4-(oxetan-2-ylmethoxy)-1H-benzo[d]imidazole-6-carboxylic acid] | 10 to 100 | > 85 | –
19 | Cn1c(CN2CCC(c3cccc(OCc4ccc(Cl)cc4F)n3)CC2)nc2c(OCCO)cc(C(=O)O)cc21 [Compound 343, 2-((4-(6-((4-Chloro-2-fluorobenzyl)oxy)pyridin-2-yl)piperidin-1-yl)methyl)-4-(2-hydroxyethoxy)-1-methyl-1H-benzo[d]imidazole-6-carboxylic acid] | < 10 | > 85 | –
20 | Cn1c(CN2CCC(c3cccc(OCc4ccc(C#N)cc4F)n3)CC2)nc2c(OC(C)(C)CF)cc(C(=O)O)cc21 [Compound 160, 2-((4-(6-((4-Cyano-2-fluorobenzyl)oxy)pyridin-2-yl)piperidin-1-yl)methyl)-4-((1-fluoro-2-methylpropan-2-yl)oxy)-1-methyl-1H-benzo[d]imidazole-6-carboxylic acid] | 100 to 1000 | > 85 | –
21 | Cn1c(CN2CCC(c3ccc(Cl)c(OCc4ccc(Cl)cc4F)c3)CC2)nc2c(OC(F)F)cc(C(=O)O)cc21 [Compound 194, 2-((4-(4-Chloro-3-((4-chloro-2-fluorobenzyl)oxy)phenyl)piperidin-1-yl)methyl)-4-(difluoromethoxy)-1-methyl-1H-benzo[d]imidazole-6-carboxylic acid] | 100 to 1000 | > 85 | –
22 | Cn1c(CN2CCC(c3cccc(OCc4ccc(Cl)cc4F)n3)CC2)nc2c(O)c(C(=O)O)ccc21 [Compound 345, 2-((4-(6-((4-Chloro-2-fluorobenzyl)oxy)pyridin-2-yl)piperidin-1-yl)methyl)-4-hydroxy-1-methyl-1H-benzo[d]imidazole-5-carboxylic acid] | > 1000 | 50 to 85 | –
23 | Cn1c(CN2CCC(c3cccc(OCc4ccc(Cl)cc4OC(F)F)n3)CC2)nc2c(OC(F)F)cc(C(=O)O)cc21 [Compound 246, 2-((4-(6-((4-Chloro-2-(difluoromethoxy)benzyl)oxy)pyridin-2-yl)piperidin-1-yl)methyl)-4-(difluoromethoxy)-1-methyl-1H-benzo[d]imidazole-6-carboxylic acid] | < 10 | > 85 | –
24 | Cn1c(CN2CCC(c3cccc(OCc4ccc(OC(F)F)cc4F)n3)CC2)nc2c(OC(F)F)cc(C(=O)O)cc21 [Compound 221, 4-(Difluoromethoxy)-2-((4-(6-((4-(difluoromethoxy)-2-fluorobenzyl)oxy)pyridin-2-yl)piperidin-1-yl)methyl)-1-methyl-1H-benzo[d]imidazole-6-carboxylic acid] | 10 to 100 | > 85 | –
25 | C[C@]1(c2ccc(Cl)cn2)Oc2cccc(C3CCN(Cc4nc5c(O)cc(C(=O)O)cc5n4C[C@@H]4CCO4)CC3)c2O1 [Compound 92, 2-((4-((S)-2-(5-Chloropyridin-2-yl)-2-methylbenzo[d][1,3]dioxol-4-yl)piperidin-1-yl)methyl)-4-hydroxy-1-(((S)-oxetan-2-yl)methyl)-1H-benzo[d]imidazole-6-carboxylic acid] | < 10 | > 85 | –
